Results from ChEMBL document CHEMBL1130922, “Solid phase synthesis of oligomannopeptoids that mimic the concanavalin A-binding trimannoside” (Bioorg Med Chem Lett, 1998).

assay: Dissociation constant for binding to concanavalin A (ConA) was determined by fluorescence anisotropy assay

| Structure (SMILES) | Kd [uM l-1] |
| --- | --- |
| CO[C@H]1[C@@H](OCCN(CC(N)=O)S(=O)(=O)c2cccc3c(N(C)C)cccc23)O[C@@H](CO)[C@@H](O)[C@@H]1O | 122 |
| CN(C)c1cccc2c(S(=O)(=O)N(CCO[C@H]3O[C@@H](CO)[C@@H](O)[C@H](O)[C@H]3O)CC(=O)N(CCO[C@H]3O[C@@H](CO)[C@@H](O)[C@H](O)[C@H]3O)CC(=O)N(CCO[C@H]3O[C@@H](CO)[C@@H](O)[C@H](O)[C@H]3O)CC(=O)N(CCO[C@H]3O[C@@H](CO)[C@@H](O)[C@H](O)[C@H]3O)CC(=O)N(CCO[C@H]3O[C@@H](CO)[C@@H](O)[C@H](O)[C@H]3O)CC(=O)N(CCO[C@H]3O[C@@H](CO)[C@@H](O)[C@H](O)[C@H]3O)CC(N)=O)cccc12 | 12 |
| CN(C)c1cccc2c(S(=O)(=O)N(CCO[C@H]3O[C@@H](CO)[C@@H](O[C@H]4O[C@@H](CO)[C@@H](O[C@H]5O[C@@H](CO)[C@@H](O)[C@H](O)[C@H]5O)[C@H](O)[C@H]4O)[C@H](O)[C@H]3O)CC(N)=O)cccc12 | 2 |
| CN(C)c1cccc2c(S(=O)(=O)N(CCO[C@H]3O[C@@H](CO)[C@@H](O)[C@H](O)[C@H]3O)CC(N)=O)cccc12 | 31 |
| CN(C)c1cccc2c(S(=O)(=O)N(CCO[C@H]3O[C@@H](CO)[C@@H](O)[C@H](O)[C@H]3O)CC(=O)N(CCO[C@H]3O[C@@H](CO)[C@@H](O)[C@H](O)[C@H]3O)CC(N)=O)cccc12 | 18 |
| CN(C)c1cccc2c(S(=O)(=O)N(CCO[C@H]3O[C@@H](CO)[C@@H](O)[C@H](O)[C@H]3O)CC(=O)N(CCO[C@H]3O[C@@H](CO)[C@@H](O)[C@H](O)[C@H]3O)CC(=O)N(CCO[C@H]3O[C@@H](CO)[C@@H](O)[C@H](O)[C@H]3O)CC(=O)N(CCO[C@H]3O[C@@H](CO)[C@@H](O)[C@H](O)[C@H]3O)CC(N)=O)cccc12 | 12 |
| CN(C)c1cccc2c(S(=O)(=O)N(CCO[C@H]3O[C@@H](CO)[C@@H](O)[C@H](O)[C@H]3O)CC(=O)N(CCO[C@H]3O[C@@H](CO)[C@@H](O)[C@H](O)[C@H]3O)CC(=O)N(CCO[C@H]3O[C@@H](CO)[C@@H](O)[C@H](O)[C@H]3O)CC(=O)N(CCO[C@H]3O[C@@H](CO)[C@@H](O)[C@H](O)[C@H]3O)CC(=O)N(CCO[C@H]3O[C@@H](CO)[C@@H](O)[C@H](O)[C@H]3O)CC(N)=O)cccc12 | 14 |
| CN(C)c1cccc2c(S(=O)(=O)N(CCO[C@H]3O[C@@H](CO)[C@@H](O)[C@H](O)[C@H]3O)CC(=O)N(CCO[C@H]3O[C@@H](CO)[C@@H](O)[C@H](O)[C@H]3O)CC(=O)N(CCO[C@H]3O[C@@H](CO)[C@@H](O)[C@H](O)[C@H]3O)CC(N)=O)cccc12 | 9 |
